In BindingDB's records for doi:10.1016/j.bmcl.2007.08.017 (Johnson & Johnson Pharmaceutical Research and Development, 2007):

Assay: Binding affinity at human histamine H3

CSc1ccc(C2CN(C)Cc3cc(Oc4nc(CN5CCOCC5)cs4)ccc32)cc1 (configuration not stated) [2-methyl-4-(4-(methylthio)phenyl)-7-(4-(morpholinomethyl)thiazol-2-yloxy)-1,2,3,4-tetrahydroisoquinoline]
Ki: 201 nM

CSc1ccc(C2CN(C)Cc3cccc(Oc4cccc(CN5CCCCC5)c4)c32)cc1 (configuration not stated) [2-methyl-4-(4-(methylthio)phenyl)-5-(3-(piperidin-1-ylmethyl)phenoxy)-1,2,3,4-tetrahydroisoquinoline]
Ki: 253 nM

CSc1ccc(C2CN(C)Cc3cccc(Oc4ccnc(CN5CCCCC5)c4)c32)cc1 (configuration not stated) [2-methyl-4-(4-(methylthio)phenyl)-5-(2-(piperidin-1-ylmethyl)pyridin-4-yloxy)-1,2,3,4-tetrahydroisoquinoline]
Ki: 265 nM

CSc1ccc(C2CN(C)Cc3cc(Oc4nc(CN5CCCCC5)cs4)ccc32)cc1 (configuration not stated) [2-methyl-4-(4-(methylthio)phenyl)-7-(4-(piperidin-1-ylmethyl)thiazol-2-yloxy)-1,2,3,4-tetrahydroisoquinoline]
Ki: 20.7 nM

CSc1ccc(C2CN(C)Cc3cc(Oc4ccc(CN5CCOCC5)cn4)ccc32)cc1 (configuration not stated) [2-methyl-4-(4-(methylthio)phenyl)-7-(5-(morpholinomethyl)pyridin-2-yloxy)-1,2,3,4-tetrahydroisoquinoline]
Ki: 260 nM

CSc1ccc(C2CN(C)Cc3cc(Oc4ccc(CN5CCC(F)CC5)cn4)ccc32)cc1 (configuration not stated) [7-(5-((4-fluoropiperidin-1-yl)methyl)pyridin-2-yloxy)-2-methyl-4-(4-(methylthio)phenyl)-1,2,3,4-tetrahydroisoquinoline]
Ki: 110 nM

CSc1ccc(C2CN(C)Cc3cc(Oc4ccnc(CN5CCCCC5)c4)ccc32)cc1 (configuration not stated) [2-methyl-4-(4-(methylthio)phenyl)-7-(2-(piperidin-1-ylmethyl)pyridin-4-yloxy)-1,2,3,4-tetrahydroisoquinoline]
Ki: 323 nM

CSc1ccc(C2CN(C)Cc3cc(Oc4cncc(CN5CCCCC5)c4)ccc32)cc1 (configuration not stated) [2-methyl-4-(4-(methylthio)phenyl)-7-(5-(piperidin-1-ylmethyl)pyridin-3-yloxy)-1,2,3,4-tetrahydroisoquinoline]
Ki: 109 nM

CSc1ccc(C2CN(C)Cc3cccc(Oc4cncc(CN5CCCCC5)c4)c32)cc1 (configuration not stated) [2-methyl-4-(4-(methylthio)phenyl)-5-(5-(piperidin-1-ylmethyl)pyridin-3-yloxy)-1,2,3,4-tetrahydroisoquinoline]
Ki: 511 nM

COc1ccc(C2CN(C)Cc3cc(OCCCN4CCCCC4)ncc32)cc1 (configuration not stated) [4-(4-methoxyphenyl)-2-methyl-7-(3-(piperidin-1-yl)propoxy)-1,2,3,4-tetrahydro-2,6-naphthyridine]
Ki: 12 nM

CSc1ccc(C2CN(C)Cc3cc(Oc4ccc(CN5CCCCC5)cc4)ccc32)cc1 (configuration not stated) [2-methyl-4-(4-(methylthio)phenyl)-7-(4-(piperidin-1-ylmethyl)phenoxy)-1,2,3,4-tetrahydroisoquinoline]
Ki: 22.7 nM

CN(C)CCC(Oc1ccccc1)c1ccc(OCCCN2CCCCC2)cc1 (configuration not stated) [N,N-dimethyl-3-phenoxy-3-(4-(3-(piperidin-1-yl)propoxy)phenyl)propan-1-amine]
Ki: 0.72 nM

CSc1ccc(C2CN(C)Cc3cc(Oc4ncc(CN5CCCCC5)s4)ccc32)cc1 (configuration not stated) [2-methyl-4-(4-(methylthio)phenyl)-7-(5-(piperidin-1-ylmethyl)thiazol-2-yloxy)-1,2,3,4-tetrahydroisoquinoline]
Ki: 20.7 nM

CSc1ccc(C2CN(C)Cc3cc(Oc4ccc(CN5CCCCC5)cn4)ccc32)cc1 (configuration not stated) [2-methyl-4-(4-(methylthio)phenyl)-7-(5-(piperidin-1-ylmethyl)pyridin-2-yloxy)-1,2,3,4-tetrahydroisoquinoline]
Ki: 8.2 nM

CSc1ccc(C2CN(C)Cc3cc(Oc4cccc(CN5CCCCC5)n4)ccc32)cc1 (configuration not stated) [2-methyl-4-(4-(methylthio)phenyl)-7-(6-(piperidin-1-ylmethyl)pyridin-2-yloxy)-1,2,3,4-tetrahydroisoquinoline]
Ki: 51 nM

CSc1ccc(C2CN(C)Cc3cc(Oc4ccc(CN5CCCCC5)nc4)ccc32)cc1 (configuration not stated) [2-methyl-4-(4-(methylthio)phenyl)-7-(6-(piperidin-1-ylmethyl)pyridin-3-yloxy)-1,2,3,4-tetrahydroisoquinoline]
Ki: 24.3 nM

CSc1ccc(C2CN(C)Cc3cc(Oc4cc(CN5CCCCC5)ccn4)ccc32)cc1 (configuration not stated) [2-methyl-4-(4-(methylthio)phenyl)-7-(4-(piperidin-1-ylmethyl)pyridin-2-yloxy)-1,2,3,4-tetrahydroisoquinoline]
Ki: 34.3 nM
